Results on four molecules are retold here after publication PMC9300616, “Grape seed proanthocyanidin extract inhibits DNA and protein damage and labile iron, enzyme, and cancer cell activities” (Scientific Reports, 2022).

SMILES strings stand for the structures.

The test system of one data set is ferritin. Description: Labile iron inhibition assay (superoxide-dependent iron release from ferritin). The data set is classed as biochemical. To be noted: for Labile Iron IC50: inhibition of iron release from ferritin, mean ± SD of three experiments. As for the experimental part:
The mixture was illuminated using a fluorescent lamp for 90 min at 25 °C. The labile iron content was measured as described by Ibrahim et al.[22].

In the next data set the target is T1, Porcine α-amylase (Sus scrofa, UniProt P00690).
T1 sequence (P00690 16-511): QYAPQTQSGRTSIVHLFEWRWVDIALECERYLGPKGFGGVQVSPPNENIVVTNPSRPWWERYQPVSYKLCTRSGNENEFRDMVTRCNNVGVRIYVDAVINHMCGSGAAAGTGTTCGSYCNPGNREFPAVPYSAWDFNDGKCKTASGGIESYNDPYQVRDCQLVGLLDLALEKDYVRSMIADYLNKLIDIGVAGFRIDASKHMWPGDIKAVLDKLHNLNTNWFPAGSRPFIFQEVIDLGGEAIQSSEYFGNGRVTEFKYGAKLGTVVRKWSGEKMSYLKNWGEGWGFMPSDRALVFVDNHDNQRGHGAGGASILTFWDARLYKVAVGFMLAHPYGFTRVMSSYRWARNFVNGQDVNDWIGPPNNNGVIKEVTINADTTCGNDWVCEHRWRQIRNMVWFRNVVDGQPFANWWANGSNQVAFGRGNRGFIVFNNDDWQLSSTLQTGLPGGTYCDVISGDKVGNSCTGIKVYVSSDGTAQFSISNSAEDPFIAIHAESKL
Description: Porcine α-amylase inhibition assay. It is filed as biochemical. To be noted: mean ± SD of three experiments. On the procedure: Inhibition of porcine α-amylase activity was described by Habib et al.[17]. […] For 10 min, the mixture was incubated at 25 °C, and then 50 µL 1% starch solution in 20 mM sodium phosphate buffer at pH 6.9 with 6 mM NaCl was added. The mixture was incubated at 25 °C, followed by addition of a color reagent (1 mL dinitrosalicylic acid). To stop the reaction, the mixture was kept for 10 min in a water bath at 100 °C and then cooled to 25 °C. 1 mL of deionized water was added, and the absorbance was read at 540 nm using a 96-well microplate reader. Inhibition of porcine α-amylase was estimated using Eq. (1) as described above.

Data set [1] relates to Bovine Serum Albumin (BSA). The data set can be described thus: Protein oxidation induced by AAPH, SDS-PAGE. To be noted: for Fragmentation of BSA reduced by: AAPH 30 min.
Description: Alkylperoxyl radical-induced oxidation of Bovine Serum Albumin (BSA) was performed as described by Habib et al.[17]. In brief, BSA (0.5 mg mL^−1) was incubated with AAPH (20 mM) in the presence or absence of different extracts in a shaking water bath at 37 °C for 30 min. A protein sample without AAPH was used as control. After treatment, protein samples were mixed with loading buffer and heated at 100 °C for 5 min. An aliquot of each sample was loaded and separated using 10% SDS-PAGE under reducing conditions. The free stained gels were imaged using a ChemiDoc MV gel documentation system (Bio-Rad, Hercules, CA, USA). To determine the amount of protein damage, band intensity was determined using the Image Lab 4.1 software (version 6.1.0 build 7) (Bio-Rad, Hercules, CA, USA). The optical density of each band was determined and standardized for the control group.
Data set [2] can be described thus: ABTS free radical-scavenging assay. To be noted: for ABTS IC50: concentration that scavenges free radicals by 50%, mean ± SD of three experiments. The data set is classed as biochemical. On the procedure: Determination was conducted based on the method reported by Platat et al.[62]. The results were expressed as the percentage of ABTS^· radical inhibition calculated using Eq. (1) as described above.

The next data set deals with mushroom tyrosinase. The data set can be described thus: Tyrosinase inhibition assay. The data set is classed as biochemical. To be noted: mean ± SD of three experiments. On the procedure:
Tyrosinase inhibitory activity was measured as described by Habib et al.[17]. […] After 10 min of incubation at 37 °C, 1 mL of mushroom tyrosinase (50 units/mL, dissolved in 0.2 M phosphate buffer, pH 6.8), was added to the mixture. The absorbance was recorded after 10 min at 475 nm. A 50% ethanol solution was used as a blank, and 1 mL of deionized water was used as the control. % Tyrosinase inhibitory activity was calculated according to Eq. (1) as described above.

The next data set has as its system pBR322 plasmid DNA. The data set can be described thus: DNA damage by free radicals (H2O2 + UV), agarose gel. The data set is classed as biochemical. To be noted: for supercoiled (SC) form of pBR322 DNA: H2O2 + UV; for DNA damage inhibition IC50: pBR322 DNA + H2O2 + UV, mean ± SD of three experiments. As for the experimental part:
The assay was performed using the method described by Habib et al.[17]. Briefly, 6 μL of 30% H2O2 was added to an Eppendorf tube with a volume of 20 μL containing 6 μL of PBS buffer, 0.2 μg of pBR322 DNA in 2 μL of 50 mM PBS (pH 7.4), and 4 μL of samples. The reactions were initiated by UV irradiation and sustained for 5 min on the surface of a UV transilluminator TFM-26 (UVP, Upland, CA, USA), with an intensity of […] at 312 nm at room temperature. At the end of the reaction, the samples were run on 0.8% agarose. […] Vitamin C and Rutin were used as positive controls.

Data set [3] is described as follows: DPPH free radical-scavenging assay. It is filed as biochemical. The conditions noted are these: concentration that scavenges free radicals by 50%; mean ± SD of three experiments. On the procedure: The estimation was based on the method reported by Habib et al.[61]. The results were expressed as the percentage inhibition of the DPPH^· radical. The percentage of inhibition of DPPH^· radical was calculated using the following equation:1 %ofDPPH^·inhibition=Abscontrol-Abssample/Abscontrol×100
where Abs control is the absorbance of DPPH^· solution without the tested sample.
For orientation: Loss of DPPH colour is used to gauge radical scavenging.

In the case of `O=C(O)c1cc(O)c(O)c(O)c1` [Gallic acid], the “percentage inhibition of iron release from ferritin” value (shortened to “percentage inhibition”) in the data set with ferritin (at 10 μg) was 50.68 ± 0.18%; with ferritin (at 50 μg), 59.22 ± 0.81%; in the data set with ferritin (at 100 μg), 68.55 ± 0.38%. Moreover, the “Labile Iron IC50” value in the data set with ferritin is recorded as 4.86 ± 0.23 µg/mL.

For `C[C@@H]1O[C@@H](OC[C@H]2O[C@@H](Oc3c(-c4ccc(O)c(O)c4)oc4cc(O)cc(O)c4c3=O)[C@H](O)[C@@H](O)[C@@H]2O)[C@H](O)[C@H](O)[C@H]1O` [Rutin], on Porcine α-amylase, the half-maximal inhibitory concentration (IC50) – broadly, the concentration needed to halve the response being measured – was 130 µM. In addition, the figures for the “Fragmentation of BSA reduced by” value in data set [1] (at 0.1 mg/mL) and in data set [1] (at 5 mg/mL) were 94.12 ± 0.20% and 99.10 ± 0.24%, respectively. Also, in data set [1] (BSA + AAPH, mean ± SD of three experiments), the “BSA damage inhibition IC50” value was found to be 4.42 ± 0.24 µg/mL. The values for the ABTS scavenging in data set [2] (at 0.1 mg/mL) and in data set [2] (at 5 mg/mL) were 48.10 ± 0.07% and 90.13 ± 0.04%, respectively. The “ABTS IC50” value in data set [2] stood at 6.31 ± 1.00 µg/mL. Moreover, the “percentage inhibition” value with ferritin (at 10 μg) was 85.32 ± 0.56%; with ferritin (at 50 μg), 90.30 ± 0.01%; with ferritin (at 100 μg) it was 96.65 ± 0.01%. Also, the “Labile Iron IC50” value with ferritin is recorded as 0.08 ± 0.14 µg/mL. Also, on mushroom tyrosinase, the “Tyrosinase IC50” value was found to be 72.08 ± 0.54 µg/mL. Moreover, the “supercoiled (SC) form of pBR322 DNA” value with pBR322 plasmid DNA (at 0.1 mg/mL) was determined as 13.50 ± 0.52%; with pBR322 plasmid DNA (at 5 mg/mL), 66.50 ± 0.57%. Also, the “DNA damage inhibition IC50” value with pBR322 plasmid DNA came out at 2.45 ± 0.13 µg/mL.

Take `Cc1c(C)c2c(c(C)c1O)CCC(C)(C(=O)O)O2` (centres unmarked) [Trolox]: the figures for the “percentage inhibition” value in the data set on ferritin (at 10 μg), with ferritin (at 50 μg) and with ferritin (at 100 μg) were 39.33 ± 0.54%, 84.79 ± 3.00% and 87.87 ± 1.87%, respectively. The “Labile Iron IC50” value in the data set on ferritin is given as 12.57 ± 0.64 µg/mL.

`O=C1O[C@H]([C@@H](O)CO)C(O)=C1O` [VC, vitamin C]: the “Porcine α-amylase IC50” value on Porcine α-amylase is 87.24 ± 0.71 µg/mL. Further, the ABTS scavenging worked out at 88.29 ± 0.22% in data set [2] (at 0.1 mg/mL) and 92.69 ± 0.32% in data set [2] (at 5 mg/mL). Besides, the “ABTS IC50” value in data set [2] is 0.68 ± 0.12 µg/mL. Further, the “Tyrosinase IC50” value on mushroom tyrosinase is on record as 42.74 ± 0.23 µg/mL. Besides, the “DPPH IC50” value in data set [3] is 880 ± 0.52 µg/mL. Besides, the results for the “supercoiled (SC) form of pBR322 DNA” value in the data set with pBR322 plasmid DNA (at 0.1 mg/mL) and with pBR322 plasmid DNA (at 5 mg/mL) were 11.50 ± 0.63% and 19.10 ± 0.91%, respectively. Also, the “DNA damage inhibition IC50” value with pBR322 plasmid DNA is given as 42.03 ± 1.06 µg/mL.
